pEC50, pKi: −log10 of the molar value.
Tests used:
[1] = biological target: T1, isolated recombinant JAK2 kinase domain (Homo sapiens, UniProt O60674); experiment: JAK enzyme assay, JAK2 kinase domain (Caliper LabChip); format: biochemical; conditions: 0.2 nM JAK2, ATP 25 μM, Morrison tight binding model
T1 construct: isolated recombinant JAK1 and JAK2 kinase domain
Procedure, shortened: (§1)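 Recombinant kinase domains phosphorylated a 5-carboxyfluorescein-labelled JAK3-derived peptide for 30 min at 22 °C, and the reaction was stopped with EDTA (50 mM final). Product fraction was measured by Caliper LabChip mobility shift. Ki came from Morrison tight-binding fits corrected for ATP competition (Ki=Ki,app/(1+[ATP]/Km,app)).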

[2] = test system: JAK1-dependent STAT6 phosphorylation downstream of IL-13 stimulation in BEAS-2B cells; experiment: JAK1 pathway assay in cell lines: IL-13 p-STAT6 BEAS-2B; format: cell-based; conditions: BEAS-2B human bronchial epithelial cells, 1 hr compound, IL-13 15 min, MSD readout
Procedure, shortened: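 BEAS-2B cells plated a day ahead in complete growth medium; compounds added 1 hr at 37 °C (0.2% DMSO final), then IL-13 at lot-specific EC90 for 15 min at 37 °C. Phospho-STAT6 in lysates measured by MSD; EC50 is 50% inhibition relative to DMSO control.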

[3] = biological target: T2, isolated recombinant JAK1 kinase domain (Homo sapiens, UniProt P23458); experiment: JAK enzyme assay, JAK1 kinase domain (Caliper LabChip); format: biochemical; conditions: 1.5 nM JAK1, ATP 25 μM, Morrison tight binding model
T2 construct: isolated recombinant JAK1 and JAK2 kinase domain
T2 sequence (P23458 875-1153 limits assumed): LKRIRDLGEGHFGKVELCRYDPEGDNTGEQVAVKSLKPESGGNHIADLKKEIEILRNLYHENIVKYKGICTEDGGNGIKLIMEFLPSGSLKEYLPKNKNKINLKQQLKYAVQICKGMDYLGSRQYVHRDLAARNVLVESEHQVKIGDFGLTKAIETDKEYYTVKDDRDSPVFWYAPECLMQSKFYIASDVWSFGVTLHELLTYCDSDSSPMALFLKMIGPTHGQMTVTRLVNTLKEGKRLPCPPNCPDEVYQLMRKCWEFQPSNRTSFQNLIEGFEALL
Procedure, shortened: as §1

T1 sequence (O60674 849-1124 limits assumed): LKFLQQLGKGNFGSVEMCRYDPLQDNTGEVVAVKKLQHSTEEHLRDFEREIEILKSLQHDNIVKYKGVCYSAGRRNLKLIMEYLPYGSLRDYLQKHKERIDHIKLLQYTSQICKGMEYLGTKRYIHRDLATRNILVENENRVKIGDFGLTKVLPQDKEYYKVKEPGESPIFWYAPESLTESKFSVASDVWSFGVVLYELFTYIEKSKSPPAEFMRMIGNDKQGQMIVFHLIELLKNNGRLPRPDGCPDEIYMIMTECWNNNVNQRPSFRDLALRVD

Row | Compound | pKi [1] | pEC50 [2] | pKi [3]
1 | N#CCC1(n2cc(OC(F)F)cn2)CN(c2cccn3nc(Nc4cnn(CC(F)F)c4)nc23)C1 [Example 150, 2-[1-[2-[[1-(2,2-difluoroethyl)pyrazol-4-yl]amino]-[1,2,4]triazolo[1,5-a]pyridin-8-yl]-3-[4-(difluoromethoxy)pyrazol-1-yl]azetidin-3-yl]acetonitrile] | 9.70 | 8.22 | 10.00
2 | CSc1cnn(C2(CC#N)CN(c3cccn4nc(Nc5cn[nH]c5)nc34)C2)c1 [Example 144, 2-[3-(4-methylsulfanyIpyrazol-1-yl)-1-[2-(1H-pyrazol-4-ylamino)-[1,2,4]triazolo[1,5-a]pyridin-8-yl]azetidin-3-yl]acetonitrile] | 9.52 | 8.15 | 10.00
3 | CN1CCN(C(=O)c2ccc(Nc3nc4c(N5CC(CC#N)(n6cc(C7CCOCC7)cn6)C5)cccn4n3)cc2)CC1 [Example 113, 2-[1-[2-[4-(4-methylpiperazine-1-carbonyl)anilino]-[1,2,4]triazolo[1,5-a]pyridin-8-yl]-3-(4-tetrahydropyran-4-ylpyrazol-1-yl)azetidin-3-yl]acetonitrile] | 9.22 | 7.37 | 9.40
4 | CCc1cnn(C2(CC#N)CN(c3cccn4nc(Nc5cccc(CC(=O)N6CCN(C)CC6)c5)nc34)C2)c1 [Example 5, 2-[3-(4-ethyl-1H-pyrazol-1-yl)-1-[2-([3-[2-(4-methylpiperazin-1-yl)-2-oxoethyl]phenyl]amino)-[1,2,4]triazolo[1,5-a]pyridin-8-yl]azetidin-3-yl]acetonitrile] | 8.51 | 6.92 | 8.72
5 | CN1CCN(C(=O)Cn2cc(Nc3nc4c(N5CC(CC#N)(Cc6ccccc6Cl)C5)cccn4n3)cn2)CC1 [Example 126, 2-[3-[(2-chlorophenyl)methyl]-1-[2-[[1-[2-(4-methylpiperazin-1-yl)-2-oxo-ethyl]pyrazol-4-yl]amino]-[1,2,4]triazolo[1,5-a]pyridin-8-yl]azetidin-3-yl]acetonitrile] | 9.40 | 7.92 | 9.70
6 | CCc1cnn(C2(CC#N)CN(c3cccn4nc(Nc5ccc6c(c5)CCN([C@@H]5CCOC5)C6)nc34)C2)c1 (stereo in doubt) [Example 61, 2-[3-(4-ethylpyrazol-1-yl)-1-[2-[[2-[rac-(3R)-tetrahydrofuran-3-yl]-3,4-dihydro-1H-isoquinolin-6-yl]amino]-[1,2,4]triazolo[1,5-a]pyridin-8-yl]azetidin-3-yl]acetonitrile] | 9.40 | 8.10 | 9.40
7 | CN1CCN(C(=O)Cn2cc(Nc3nc4c(N5CC(CC#N)(n6cc(CCc7ccccc7)cn6)C5)cccn4n3)cn2)CC1 [Example 59, 2-[1-[2-[[1-[2-(4-methylpiperazin-1-yl)-2-oxo-ethyl]pyrazol-4-yl]amino]-[1,2,4]triazolo[1,5-a]pyridin-8-yl]-3-[4-(2-phenylethyl)pyrazol-1-yl]azetidin-3-yl]acetonitrile] | 9.70 | 8.10 | 9.70
8 | CCc1cnn(C2(CC#N)CN(c3cccn4nc(Nc5ccc6c(c5)CCN(C)C6)nc34)C2)c1 [Example 50, 2-[3-(4-ethylpyrazol-1-yl)-1-[2-[(2-methyl-3,4-dihydro-1H-isoquinolin-6-yl)amino]-[1,2,4]triazolo[1,5-a]pyridin-8-yl]azetidin-3-yl]acetonitrile] | 8.70 | 7.19 | 8.74
9 | CCc1cnn(C2(CC#N)CN(c3cccn4nc(Nc5ccc(C(=O)N6CCN(C)CC6)c(C)c5)nc34)C2)c1 [Example 92, 2-[3-(4-ethylpyrazol-1-yl)-1-[2-[3-methyl-4-(4-methylpiperazine-1-carbonyl)anilino]-[1,2,4]triazolo[1,5-a]pyridin-8-yl]azetidin-3-yl]acetonitrile] | 8.77 | 7.72 | 9.40

Source: US20230242530A1, “8-(AZETIDIN-1-YL)-[1,2,4]TRIAZOLO[1,5-A]PYRIDINYL COMPOUNDS, COMPOSITIONS AND METHODS OF USE THEREOF” (Genentech, Inc., priority 2016, published 2023)
